{
  "source": "patent US20160280670A1",
  "about": "“NOVEL COMPOUNDS FOR REGENERATION OF TERMINALLY-DIFFERENTIATED CELLS AND TISSUES” (ACOUSIA THERAPEUTICS GMBH, priority 2013, published 2016)",
  "tested_on": "inner ear progenitor cells from the postnatal sensory organ of the mouse (differentiated sensory epithelial patches, \"mini ears\")",
  "assay": "Screening assay: EdU proliferation in differentiated inner ear progenitor sphere patches (\"mini ears\")",
  "type": "cell-based",
  "settings": "test item 5 μM for 96 h",
  "from_the_text": "A screening assay was employed according to an experimental protocol that enables the isolation of inner ear progenitor cells from the postnatal sensory organ of the mouse preparations in vitro. These isolated progenitors generate typical spheres that express a comprehensive set of marker genes that define the early developing sensory epithelium in the progenitor cell state. Under appropriate conditions these spheres can differentiate into epithelial patches that express marker genes that are characteristic of differentiating hair cells and supporting cells as found in the native organ of Corti. These differentiated sensory epithelial patches, tagged “mini ears”, can be generated in sufficient numbers for screening purposes in a low-throughput format. For an appropriate read-out, dedifferentiation was detected with three parameters: (i) labelling of Sox2 expression (Sox2=transcription factor SRY (sex determining region Y-box 2), (ii) an increase in the incorporation of EdU indication proliferation (EdU=thymidine analogue 5-Ethynyl2′-deoxyuridine), and (iii) labelling using the hair cell marker Myosin VIIA.\nCompounds were screened at a standard concentration of 5 μM. […]\nFor ease of comparison the number of EdU positive cells was normalized to the DMSO only condition. Thus, the proliferation activity is expressed as “fold EdU positive cells”. […]",
  "data": [
    {"smiles": "C[C@](N)(Cc1c[nH]c2ccccc12)c1nc(C(=O)NC2CCCCC2)co1.Cl", "note": "[Compound 13, (S)-2-(2-amino-1-(1H-indol-3-yl)propan-2-yl)-N-cyclohexyloxazole-4-carboxamide hydrochloride]", "values": [
      {"measurement": "Mean percentage of EdU positive cells", "setting": "EdU for the last 5 hours, patches after 14 days differentiation", "value": 3.59, "unit": "%"},
      {"measurement": "Fold EdU positive re DMSO (proliferation activity, \"fold EdU positive cells\")", "setting": "number of EdU positive cells normalized to DMSO only condition, hydrochloride", "value": 2.04, "unit": "fold"}
    ]}
  ]
}
